How the values were obtained:
Type in all cases: functional
Rattus norvegicus [1] = assay: The compound was tested in vivo for the iron clearing activity against non-iron-overloaded-bile duct cannulated rat, at a concentration of 150 uM/Kg
Monkey [2] = assay: The compound was tested in vivo for the iron clearing activity against non -iron-overloaded Cebus apella monkey at a concentration of 300 uM/Kg.
Monkey [3] = assay: The compound was tested in vivo for the iron clearing activity against non -iron-overloaded Cebus apella monkey at a concentration of 150 uM/Kg.
Monkey [4] = assay: The compound was tested in vivo for the iron clearing activity against non -iron-overloaded Cebus apella monkey at a concentration of 75 uM/Kg
Monkey [5] = assay: The compound was tested in vivo for the iron clearing activity against non -iron-overloaded Cebus apella monkey at a concentration of 150 uM/Kg
Monkey [6] = assay: The compound was tested in vivo for the iron clearing activity against non -iron-overloaded Cebus apella monkey at a concentration of 150 uM/Kg, with distilled water
Monkey [7] = assay: The compound was tested in vivo for the iron clearing activity against non -iron-overloaded Cebus apella monkey at a concentration of 300 uM/Kg
Monkey [8] = assay: The compound was tested in vivo for the iron clearing activity against non -iron-overloaded Cebus apella monkey at a concentration of 300 uM/Kg with distilled water
Monkey [9] = assay: The compound was tested in vivo for the iron clearing activity against non-iron-overloaded Cebus apella monkey, values in parentheses indicate the % breakdown of iron excreted in stool and urine, at a concentration of 75 uM/Kg.
Rattus norvegicus [10] = assay: The compound was tested in vivo for the iron clearing activity against non-iron-overloaded-bile duct cannulated rat, at a concentration of 150 uM/Kg(po)
Monkey [11] = assay: The compound was tested in vivo for the iron clearing activity against non-iron-overloaded Cebus apella monkey, values in parentheses indicate the % breakdown of iron excreted in stool and urine, at a concentration of 300 uM/Kg.

| SMILES | Efficiency (Rattus norvegicus [1]) [%] | Efficiency (Monkey [2]) [%] | Efficiency (Monkey [5]) [%] | further results |
| --- | --- | --- | --- | --- |
| O=C(O)[C@H]1CSC(c2ccccc2O)=N1 | 1.4 | 12.4 |  |  |
| C[C@]1(C(=O)O)CSC(c2ccc(O)cc2O)=N1 [DEFERITRIN] | <0.5 |  |  | Efficiency (Monkey [3]): 13.4%; Efficiency (Monkey [4]): 17.7% |
| O=C(O)[C@H]1CSC(c2ccc(O)cc2O)=N1 | 2.4 |  | 4.2 | Efficiency (Monkey [6]): 5.6%; Efficiency (Monkey [7]): 5.6%; Efficiency (Monkey [8]): 4.8% |
| C[C@]1(C(=O)O)CSC(c2ccccc2O)=N1 | 2.7 | 13.1 |  | Efficiency (Monkey [9]): 21.5% |
| O=C(O)[C@@H]1CSC(c2ncccc2O)=N1 | 3.9 |  | 0.5 |  |
| O=C(O)[C@H]1CSC(c2ncccc2O)=N1 | 2.4 | 8 | 4.8 |  |
| C[C@]1(C(=O)O)CSC(c2ncccc2O)=N1 [DESFERRITHIOCIN] | 5.5 |  | 16.1 |  |
| O=C(O)[C@@H]1CSC(c2ccc(O)cc2O)=N1 |  |  |  | Efficiency (Monkey [3]): 1.7%; Efficiency (Rattus norvegicus [10]): <0.5% |
| O=C(O)[C@@H]1CSC(c2ccccc2O)=N1 | 4.2 |  |  | Efficiency (Monkey [11]): 8.2% |
